A short description of data set [1]: Anti-inflammatory activity: oedema provoked by carragenin in the rat. Format: in vivo. As to conditions: po, read-out: percentage inhibition of oedema; for inhibition in vivo at 256 mg/kg: 256 mg/kg orally. On the procedure:
The method used was as follows.
The anti-inflammatory activity was measured on oedema provoked by carragenin in the rat. Groups of six male rats each weighing 120 to 130 g received the compound under test orally in suspension in "tween 80", half the dose being given 2 hours before and the other half 1/2 hour before the subcutaneous plantar injection of 0.05 ml of a 1 % carragenin solution. The volume of the injected paw was measured by plethysmography at regular intervals. Table 1 below gives the percentage inhibition of the oedema with reference to untreated controls.

A short description of data set [2]: Analgesic activity: Siegmund's test (phenylbenzoquinone painful reactions). Format: in vivo. The conditions noted are these: Mus musculus, po, read-out: percentage inhibition of reactions; for inhibition in vivo at 64 mg/kg: 64 mg/kg orally; for inhibition in vivo at 128 mg/kg: 128 mg/kg orally; for inhibition in vivo at 256 mg/kg: 256 mg/kg orally. On the procedure:
This activity was measured by Siegmund's test in mice and Randall and Selitto's test in the rat.
Groups of six mice received the compound under test orally 1 hour before intraperitoneal injection of 0.2 ml of an 0.02% of solution of phenylbenzoquinone. The number of painful reactiors from the fifth to the tenth minute after the injection of phenylbenzoquinone was counted.

A short description of a further data set: Escape test. Format: in vivo. As to conditions: Mus musculus, ip, 0.5 h, read-out: Percentage inhibition (number of attempts to escape); for change in vivo at 16 mg/kg: 16 mg/kg intraperitoneally; for change in vivo at 32 mg/kg: 32 mg/kg intraperitoneally; for change in vivo at 64 mg/kg: 64 mg/kg intraperitoneally; for change in vivo at 128 mg/kg: 128 mg/kg intraperitoneally. How it is done: Groups of 8 mice were placed in sub groups of 4 in an enclosure from which they could escape by an inclined plane. The number of attempts to escape during 5 minutes were counted half an hour after intraperitoneal administration of the compound under test.

Data set [3] in a line: Antagonism of convulsions produced by cardiazole. It counts as in vivo. The conditions noted are these: Mus musculus, ip, read-out: Percentage inhibition of tonic convulsions; for inhibition in vivo at 64 mg/kg: 64 mg/kg intraperitoneally; for inhibition in vivo at 128 mg/kg: 128 mg/kg intraperitoneally. How it is done:
Groups of 6 mice received the compound under test 30 minutes before introperitoneal injection of 160 mg/kg of cardiazole. The action of the compound under test on the tonic convulsion phase was observed.

The next data set in a line: Solubility in water. It counts as physicochemical. The conditions noted are these: monohydrochloride.
Data set [4] in a line: Analgesic activity: Randall and Selitto's test (beer yeast paw, pain threshold). It counts as in vivo, rat. How it is done:
This activity was measured by Siegmund's test in mice and Randall and Selitto's test in the rat. Groups of ten male rats each weight 120 to 140 g received by subcutaneous plantar injection 0.05 ml of a 5% aqueous suspension of beer yeast. 2 Hours after this treatment they received the compound under test orally and 1 hour after administration of this compound the paw which had been injected and the contralateral paw were subjected to increasing pressure. The appearance of the pain threshold was noted.

For the compound `Cc1cccc(Cl)c1Nc1ncccc1C(=O)OCCN1CCOCC1` [Example 9, β-Morpholino ethyl 2-(2-chloro-6-methylanilino) nicotinate], the inhibition in vivo at 16 mg/kg in data set [1] (16 mg/kg orally) turned out to be 7%. Also, the inhibition in vivo at 64 mg/kg in data set [1] (64 mg/kg orally) amounted to 20%. Further, the inhibition in vivo at 256 mg/kg in data set [1] was found to be 39%. In addition, in data set [2] (16 mg/kg orally), the inhibition in vivo at 16 mg/kg turned out to be 14%. Besides, the inhibition in vivo at 32 mg/kg in data set [2] (32 mg/kg orally) was found to be 8%. For the same compound, in data set [2], the inhibition in vivo at 64 mg/kg amounted to 8%, the inhibition in vivo at 128 mg/kg worked out at 37% and the inhibition in vivo at 256 mg/kg was 66%. In addition, in “Escape test”, the change in vivo at 16 mg/kg is -19%, the change in vivo at 32 mg/kg is -22%, the change in vivo at 64 mg/kg was -59% and the change in vivo at 128 mg/kg was -100%. Moreover, in data set [3], the inhibition in vivo at 64 mg/kg came out at 0% and the inhibition in vivo at 128 mg/kg is 100%. The solubility in water entry in “Solubility in water” is listed as “soluble in water”.
Regarding `Cc1cccc(Nc2ncccc2C(=O)OCC(C)(C)N(C)C)c1C` [Example 3, 2-Dimethylamino-2-methylpropyl nixylate], the values for the inhibition in vivo at 128 mg/kg in data set [1] (128 mg/kg orally), in data set [2] and in data set [3] were 0%, 49% and 100%, respectively. Besides, the results for the inhibition in vivo at 256 mg/kg in data set [1] and in data set [2] were 72% and 75%, respectively. In addition, the inhibition in vivo at 512 mg/kg in data set [1] (512 mg/kg orally) was determined as 67%. Also, the inhibition in vivo at 64 mg/kg in data set [2] was 31%; in data set [3] it was 83%. For the same compound, the “percentage increase of pain threshold” value in data set [4] (with yeast, 16 mg/kg orally) was 33%; in data set [4] (with yeast, 32 mg/kg orally), 42%; in data set [4] (with yeast, 64 mg/kg orally) it was 66%; in data set [4] (with yeast, 128 mg/kg orally), 41%; in data set [4] (without yeast, 32 mg/kg orally), 0%; in data set [4] (without yeast, 64 mg/kg orally), 2%. The “percentage increase of pain threshold” value in data set [4] (without yeast, 128 mg/kg orally) is listed as 11%; in data set [4] (without yeast, 256 mg/kg orally), 0%. In addition, the change in vivo at 8 mg/kg in the data set “Escape test” (8 mg/kg intraperitoneally) was -16%. Moreover, the change in vivo at 16 mg/kg in the data set “Escape test” is -15%. For the same compound, the change in vivo at 32 mg/kg in “Escape test” was -30%. Moreover, the change in vivo at 64 mg/kg in the data set “Escape test” is -67%. In “Escape test”, the change in vivo at 128 mg/kg is -95%. The inhibition in vivo at 8 mg/kg in data set [3] (8 mg/kg intraperitoneally) amounted to 0%. The inhibition in vivo at 16 mg/kg in data set [3] (16 mg/kg intraperitoneally) was determined as 5%. In addition, the inhibition in vivo at 32 mg/kg in data set [3] (32 mg/kg intraperitoneally) was 16%. For the same compound, the solubility in water result in the data set “Solubility in water” was “soluble in water”.

The values are drawn from US3959272A, “Aminoalkyl esters of 2-anilino-nicotinic acids” (Societe Anonyme dite: Hexachime, priority 1972, dated 1976).
